Legend:
[1] = biological target: T1, PRMT1 (Homo sapiens, UniProt Q99873); assay: PRMT1 RKO Cellular Target Engagement Assay (In-Cell Western, asymmetric di-methyl arginine); type: cell-based; details: RKO cells, 48 hr compound incubation; read-out: RKO IC50 (PRMT-1 Target Engagement)
In short: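 RKO cells (1,000/well) received 1:3 serially diluted compound for 48 h at 37 °C, then were fixed, permeabilised and immunostained for asymmetric di-methyl arginine by In-Cell Western. The 800 nm antibody signal was normalised to CellTag 700 nm; IC50 from four-parameter logistic fit.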

[2] = biological target: T1, PRMT1; assay: PRMT1 Enzymatic Assay (LANCE TR-FRET, methylation of histone H4 at Arg3); type: biochemical; set-up: purchased SignalChem P365-380G; details: PRMT1 1.5 nM, SAM 1 μM, biotinylated histone H4 (1-21) 25 nM; read-out: PRMT-1 IC50
In short: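 PRMT1 (1.5 nM) preincubated 15 min with compound at room temperature, then reacted 1 h with 1 μM SAM and 25 nM biotinylated histone H4 (1-21) in 50 mM Hepes pH 8, 1 mM TCEP, 0.003% Tween-20. H4R3me detected by TR-FRET (665/620 nm ratio); IC50 from four-parameter logistic fit.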

[3] = tested on: PATC53 cells; assay: PATC53 Long Term Phenotypic Assay (14 days, crystal violet viability); type: cell-based; details: 336 h
Procedure: PATC53 cells were derived from the PATC53 PDX model and kindly provided by Jason Fleming (MDACC). The cells were routinely maintained in DMEM/F12 Medium (Corning, Catalog #10-090-CV) supplemented with 10% fetal bovine serum (Sigma, Catalog #F2442), 100 units/mL penicillin and 100 μg/mL streptomycin (Gibco, Catalog #15140-122) in a humidified incubator (37° C., 5% CO2). Prior to the assay, cells were seeded onto a 12-well, TC treated plate (Corning, catalog #353043) at a density of 250 cells per well in a volume of 1 mL. The plate was incubated for 24 hours at 37° C. and 5% CO2. Stock solutions of the test compounds were prepared in 100% DMSO (Sigma, Catalog #D2650) and serially diluted 1:3 using 100% DMSO. Compounds were additionally diluted 1:100 in culture medium, and 110 μL/well was transferred to the tissue culture plate. Following the compound addition, the plate was incubated at 37° C. and 5% CO2 for 14 days. Viability was then assessed by crystal violet staining (Fisher Scientific, Catalog #C58125) as follows: 450 μL of crystal violet (1 mg/mL) was added to the plate for a 10 minute incubation at room temperature. After incubation, the plate was washed 3× with distilled water to remove excess dye and allowed to dry overnight. The crystal violet was solubilized using 10% HOAc (500 μL) for 10 minutes at room temperature, while shaking. A volume of 100 μL was then transferred to a 96-well SpectraPlate (Perkin Elmer, Catalog #6005649). Absorbance at 590 nm was measured with a BioTek Synergy Neo. IC50 values were calculated using a four-parameter logistic curve fit using Genedata Screener software.

[4] = tested on: DOHH2 cells; assay: DOHH2 Long Term Phenotypic Assay (7 days, Cell Titer-Glo viability); type: cell-based; details: Homo sapiens, DOHH-2, 168 h, Cell Titer-Glo 2.0
In short: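 DOHH2 lymphoma cells (250 per well) in RPMI-1640 with 10% FBS were exposed to 1:3 serially diluted compounds for 7 days at 37 °C, 5% CO2. Viability was read by CellTiter-Glo 2.0 luminescence, and IC50 values came from four-parameter logistic fits.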

T1 sequence (Q99873 whole entry): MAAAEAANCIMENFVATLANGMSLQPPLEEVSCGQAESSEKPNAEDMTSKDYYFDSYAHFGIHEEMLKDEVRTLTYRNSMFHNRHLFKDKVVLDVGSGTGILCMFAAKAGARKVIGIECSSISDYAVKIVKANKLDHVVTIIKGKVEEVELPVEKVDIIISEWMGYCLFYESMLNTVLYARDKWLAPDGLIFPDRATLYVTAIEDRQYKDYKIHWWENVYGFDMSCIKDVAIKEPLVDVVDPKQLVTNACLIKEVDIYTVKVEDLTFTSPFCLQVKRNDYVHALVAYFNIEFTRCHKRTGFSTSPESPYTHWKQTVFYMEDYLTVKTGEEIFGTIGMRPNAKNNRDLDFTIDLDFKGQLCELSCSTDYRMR

Row | Structure (SMILES) | IC50 [1] | IC50 [2] | IC50 [3] | IC50 [4]
1 | CNCCN(C)Cc1nn2c(c1C1CCC(COC)(COC)CC1)CN(C(=O)C1CC1)CC2 [Example 5, (3-(4,4-bis(methoxymethyl)-cyclohexyl)-2-((methyl(2-(methylamino)ethyl)amino)-methyl)-6,7-dihydropyrazolo-[1,5-a]pyrazin-5(4H)-yl)-(cyclopropyl)methanone] | 121 nM | 34 nM | 58 nM | 81 nM
2 | COCC1(COC)CCC(c2c(CN(C)CCN)nn3c2CN(C(=O)C2CC2)CC3)CC1 [Example 6, (2-(((2-aminoethyl)(methyl)-amino)methyl)-3-(4,4-bis-(methoxymethyl)cyclohexyl)-6,7-dihydropyrazolo[1,5-a]-pyrazin-5(4H)-yl)-(cyclopropyl)methanone] | 361 nM | 14 nM | 147 nM | 138 nM
3 | CNCCN(C)Cc1nn2c(c1C1CCC(COC)(COC)CC1)CN(C(=O)C(C)(C)C)CC2 [Example 8, 1-(3-(4,4-bis(methoxy-methyl)cyclohexyl)-2-((methyl(2-(methylamino)-ethyl)amino)methyl)-6,7-dihydropyrazolo[1,5-a]-pyrazin-5(4H)-yl)-2,2-dimethylpropan-1-one] | 913 nM | 36 nM | 100 nM | 67 nM
4 | COCC1(COC)CCC(c2c(CN(C)CCN)nn3c2CN(C(=O)C2CCC2)CC3)CC1 [Example 11, (2-(((2-aminoethyl)(methyl)-amino)methyl)-3-(4,4-bis-(methoxymethyl)cyclohexyl)-6,7-dihydropyrazolo[1,5-a]-pyrazin-5(4H)-yl)-(cyclobutyl)methanone] | 1210 nM | 16 nM | 70 nM | 111 nM
5 | CNCCN(C)Cc1nn2c(c1C1CCC(COC)(COC)CC1)CN(C(=O)C1(C(F)(F)F)CC1)CC2 [Example 18, (3-(4,4-bis(methoxymethyl)-cyclohexyl)-2-((methyl(2-(methylamino)ethyl)amino)-methyl)-6,7-dihydropyrazolo-[1,5-a]pyrazin-5(4H)-yl)(1-(trifluoro-methyl)cyclopropyl)-methanone] | 137 nM | 60 nM | 48 nM | 142 nM
6 | CNCCN(C)Cc1nn2c(c1C1CCC(COC)(COC)CC1)CN(C(=O)C13CC(F)(C1)C3)CC2 [Example 21, (3-(4,4-bis(methoxymethyl)-cyclohexyl)-2-((methyl(2-(methylamino)ethyl)amino)-methyl)-6,7-dihydropyrazolo-[1,5-a]pyrazin-5(4H)-yl)(3-fluorobicyclo[1.1.1]pentan-1-yl)methanone] | 185 nM | 53 nM | 68 nM | 96 nM
7 | CNCCN(C)Cc1nn2c(c1C1CCC(COC)(COC)CC1)CN(C(=O)C1(C(C)(F)F)COC1)CC2 [Example 23, (3-(4,4-bis(methoxymethyl)-cyclohexyl)-2-((methyl(2-(methylamino)ethyl)amino)-methyl)-6,7-dihydropyrazolo-[1,5-a]pyrazin-5(4H)-yl)(3-(1,1-difluoroethyl)oxetan-3-yl)methanone] | 382 nM | 137 nM | 264 nM | 147 nM
8 | CNCCN(C)Cc1nn2c(c1C1CCC(COC)(COC)CC1)CN(C(=O)C(C)C)CC2 [Example 24, 1-(3-(4,4-bis(methoxy-methyl)cyclohexyl)-2-((methyl(2-(methylamino)-ethyl)amino)methyl)-6,7-dihydropyrazolo[1,5-a]-pyrazin-5(4H)-yl)-2-methylpropan-1-one] | 254 nM | 76 nM | 69 nM | 103 nM
9 | CNCCN(C)Cc1nn2c(c1C1CCC(COC)(COC)CC1)CN(C(=O)C13CC(OC)(C1)C3)CC2 [Example 25, (3-(4,4-bis(methoxymethyl)-cyclohexyl)-2-((methyl(2-(methylamino)ethyl)amino)-methyl)-6,7-dihydropyrazolo-[1,5-a]pyrazin-5(4H)-yl)(3-methoxybicyclo[1.1.1]pentan-1-yl)methanone] | 419 nM | 82 nM | 203 nM | 150 nM
10 | CNCCN(C)Cc1nn2c(c1C1CCC(COC)(COC)CC1)CN(C(=O)CC1CC1)CC2 [Example 27, 1-(3-(4,4-bis(methoxy-methyl)cyclohexyl)-2-((methyl(2-(methylamino)-ethyl)amino)methyl)-6,7-dihydropyrazolo[1,5-a]-pyrazin-5(4H)-yl)-2-cyclopropylethan-1-one] | 318 nM | 59 nM | 115 nM | 79 nM

The next lines start with results.

Row | IC50 [1] | IC50 [2] | Structure (SMILES) | IC50 [3] | IC50 [4]
11 | 225 nM | 56 nM | CNCCN(C)Cc1nn2c(c1C1CCC(COC)(COC)CC1)CN(C(=O)C1(F)CC1)CC2 [Example 13, (3-(4,4-bis(methoxymethyl)-cyclohexyl)-2-((methyl(2-(methylamino)ethyl)amino)-methyl)-6,7-dihydropyrazolo-[1,5-a]pyrazin-5(4H)-yl)(1-fluorocyclopropyl)methanone] | 38 nM | 150 nM
12 | 124 nM | 94 nM | CNCCN(C)Cc1nn2c(c1C1CCC(COC)(COC)CC1)CN(C(=O)C1(OC)CC1)CC2 [Example 14, (3-(4,4-bis(methoxymethyl)-cyclohexyl)-2-((methyl(2-(methylamino)ethyl)amino)-methyl)-6,7-dihydropyrazolo-[1,5-a]pyrazin-5(4H)-yl)(1-methoxycyclopropyl)-methanone] | 478 nM | 211 nM
13 | 370 nM | 71 nM | CNCCN(C)Cc1nn2c(c1C1CCC(COC)(COC)CC1)CN(C(=O)C1(C#N)CC1)CC2 [Example 15, 1-(3-(4,4-bis(methoxy-methyl)cyclohexyl)-2-((methyl(2-(methylamino)-ethyl)amino)methyl)-4,5,6,7-tetrahydropyrazolo[1,5-a]-pyrazine-5-carbonyl)cyclopropane-1-carbonitrile] | 732 nM | 211 nM
14 | 370 nM | 64 nM | CNCCN(C)Cc1nn2c(c1C1CCC(COC)(COC)CC1)CN(C(=O)C1(C)COC1)CC2 [Example 16, (3-(4,4-bis(methoxymethyl)-cyclohexyl)-2-((methyl(2-(methylamino)ethyl)amino)-methyl)-6,7-dihydropyrazolo-[1,5-a]pyrazin-5(4H)-yl)(3-methyloxetan-3-yl)methanone] | 209 nM | 160 nM
15 | 214 nM | 52 nM | CNCCN(C)Cc1nn2c(c1C1CCC(COC)(COC)CC1)CN(C(=O)C1(C)CCC1)CC2 [Example 19, (3-(4,4-bis(methoxymethyl)-cyclohexyl)-2-((methyl(2-(methylamino)ethyl)amino)-methyl)-6,7-dihydropyrazolo-[1,5-a]pyrazin-5(4H)-yl)(1-methylcyclobutyl)methanone] | 37 nM | 87 nM
16 | 239 nM | 62 nM | CNCCN(C)Cc1nn2c(c1C1CCC(COC)(COC)CC1)CN(C(=O)C13CC(C1)C3)CC2 [Example 20, bicyclo[1.1.1]pentan-1-yl(3-(4,4-bis(methoxymethyl)-cyclohexyl)-2-((methyl(2-(methylamino)ethyl)amino)-methyl)-6,7-dihydropyrazolo-[1,5-a]pyrazin-5(4H)-yl)-methanone] | 50 nM | 103 nM
17 | 907 nM | 139 nM | CNCCN(C)Cc1nn2c(c1C1CCC(COC)(COC)CC1)CN(C(=O)C1(OC)CCC1)CC2 [Example 28, (3-(4,4-bis(methoxymethyl)-cyclohexyl)-2-((methyl(2-(methylamino)ethyl)amino)-methyl)-6,7-dihydropyrazolo-[1,5-a]pyrazin-5(4H)-yl)(1-methoxycyclobutyl)-methanone] | 435 nM | 207 nM

Source: patent publication US20230416261A1, “ETHANEDIAMINE-HETEROCYCLE DERIVATIVES AS INHIBITORS OF PROTEIN ARGININE METHYLTRANSFERASES” (Board of Regents, The University of Texas System, priority 2021, published 2023)
